What is called IC50 is the point on the concentration scale where inhibition reaches its midpoint. The term DC50 denotes the midpoint of the concentration-degradation curve. The Emax is the maximal effect, on the per cent scale that the assay sets. Usually bioavailability stands for the share of a dose that reaches the circulation, judged against a reference dose that is usually intravenous. The TGI is the reduction of tumour growth relative to the control group. A higher TGI goes with much slowing of growth.

The values below come from ChEMBL document CHEMBL5136980, “Indoleamine 2,3-dioxygenase 1 (IDO1) inhibitors and PROTAC-based degraders for cancer therapy” (Eur J Med Chem, 2022).

In one data set the test system is HeLa. The data set is described as follows: Cytotoxicity against human HeLa cells assessed as cell viability incubated for 48 hrs by MTT assay. It counts as functional, cell-based. In general terms: Tetrazolium assays rely on reduction of a dye to a coloured formazan, in cell work by metabolically active cells.
Data set [1] deals with T1, Indoleamine 2,3-dioxygenase 1 (Homo sapiens, UniProt P14902). The data set is described as follows: Inhibition of IDO1 (unknown origin).
Data set [2] addresses T2, Protein cereblon/Indoleamine 2,3-dioxygenase 1 (Homo sapiens, UniProt P14902+Q96SW2). The experiment in a line: Protac activity at CRBN/IDO1 in human HeLa cells assessed as IDO1 protein degradation. It counts as cell-based.
Target sequence in this assay (P14902 whole entry): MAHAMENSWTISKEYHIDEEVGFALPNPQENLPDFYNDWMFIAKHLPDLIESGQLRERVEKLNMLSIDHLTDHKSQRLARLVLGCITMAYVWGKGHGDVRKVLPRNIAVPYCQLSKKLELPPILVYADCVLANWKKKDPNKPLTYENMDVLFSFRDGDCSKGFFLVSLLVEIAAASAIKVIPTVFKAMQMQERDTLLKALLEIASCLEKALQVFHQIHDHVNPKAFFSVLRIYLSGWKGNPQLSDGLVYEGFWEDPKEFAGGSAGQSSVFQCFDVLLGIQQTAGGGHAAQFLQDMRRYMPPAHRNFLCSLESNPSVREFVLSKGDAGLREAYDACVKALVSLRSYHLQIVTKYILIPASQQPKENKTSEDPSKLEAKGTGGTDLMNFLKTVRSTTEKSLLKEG
Target sequence in this assay (Q96SW2 whole entry): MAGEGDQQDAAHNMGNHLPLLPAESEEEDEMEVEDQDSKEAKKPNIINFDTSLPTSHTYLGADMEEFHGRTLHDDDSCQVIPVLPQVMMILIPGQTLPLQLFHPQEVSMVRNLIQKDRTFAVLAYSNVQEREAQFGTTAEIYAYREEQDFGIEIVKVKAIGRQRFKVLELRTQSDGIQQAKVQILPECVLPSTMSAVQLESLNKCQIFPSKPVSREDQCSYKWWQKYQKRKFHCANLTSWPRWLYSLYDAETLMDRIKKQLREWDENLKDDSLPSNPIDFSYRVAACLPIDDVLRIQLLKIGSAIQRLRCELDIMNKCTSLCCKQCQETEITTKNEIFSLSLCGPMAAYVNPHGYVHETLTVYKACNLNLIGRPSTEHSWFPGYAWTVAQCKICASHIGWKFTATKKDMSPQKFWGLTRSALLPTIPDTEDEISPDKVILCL
For data set [3], the target named is T2, Protein cereblon/Indoleamine 2,3-dioxygenase 1. The experiment in a line: Protac activity at CRBN/IDO1 in human HeLa cells assessed as IDO1 protein degradation relative to control. Format: cell-based.
Target sequence in this assay (P14902 whole entry, looked up): as the sequence (P14902 whole entry) above
Target sequence in this assay (Q96SW2 whole entry, looked up): as the sequence (Q96SW2 whole entry) above
Data set [4] has as its target T1, Indoleamine 2,3-dioxygenase 1. The experiment in a line: Inhibition of IDO1 in IFN-gamma stimulated human HeLa cells in presence of heme measured after 20 hrs by heme-competitive binding assay. Format: cell-based.
Data set [5] shares this target. The experiment in a line: Inhibition of IDO1 (unknown origin) using L-tryptophan incubated for 30 mins by microplate reader method.
Data set [6] is described as follows: Oral bioavailability in ICR mouse 30 mg/kg measured after 0.0833 to 24 hrs by liquid chromatography/tandem mass spectrometric analysis. It counts as ADME, organism-based. Particulars: in vivo, time 0.0833-24 hrs.
The next data set has as its system Ehrlich. The data set is described as follows: Antitumor activity against mouse Ehrlich ascites carcinoma allografted in Swiss albino mouse assessed tumor growth inhibition by measuring CD8+ T cells relative to control. It counts as functional.
A further data set is filed under the species Homo sapiens. The data set is described as follows: Ratio of IC50 for IDO1 (unknown origin) to IC50 for IDO1 in human HeLa cells. Format: cell-based.

A value given as a limit tells only on which side of the number the result lay.

T1 sequence (P14902 whole entry): as the sequence (P14902 whole entry) above

As to `O=C1CCC(N2C(=O)c3cccc(NCCOCCOCCOCCOCCOCCOCCOCCNCCNc4nonc4/C(=N/O)Nc4cccc(Br)c4)c3C2=O)C(=O)N1` (configuration not stated), the results for the IC50 (with HeLa; in data set [1]) were 37400 nM and 1070 nM, respectively. Moreover, in data set [2], the DC50 worked out at 2840 nM. The Emax in [3] worked out at 93%.

For the compound `C[C@@H](C(=O)Nc1ccc(C#N)cc1)[C@H]1CC[C@@H](c2ccnc3ccc(F)cc32)CC1`, the IC50 in data set [4] is < 100 nM.

As to `CC(C(=O)Nc1ccc(Cl)cc1)N1CCC(Oc2ccnc3ccc(F)cc23)CC1` (configuration not stated), the IC50 in [1] was > 50 nM.

On to `OC(CC1c2cc(F)ncc2-c2cncn21)C1CCCCC1` (configuration not stated), for which the IC50 in data set [1] is < 100 nM.

In the case of `CC1=CCC[C@@H](C)[C@]1(C)C[C@]1(C)[C@@H](O)CC[C@]2(C)[C@@]3(C)CC[C@]4(C)c5c(C(O)C(=O)O)ccc(O)c5C[C@H]4[C@]3(C)CC[C@]21C` (some centres not stated), the half-inhibitory concentration (IC50) in [5] came to 240 nM.

With `N#Cc1ccc(NC(=O)NCC2c3ccccc3-c3cncn32)cc1` (configuration not stated), the IC50 in data set [1] was < 50 nM.

Turning to `OC1CCC(C(F)(F)CC2c3c(F)cccc3-c3cncn32)CC1` (configuration not stated), the IC50 in data set [1] is < 100 nM.

`CCC(C(=O)Nc1ccc(Cl)cc1)[C@H]1CC[C@H](Oc2ccnc3ccccc23)CC1` (some centres not stated): the IC50 in data set [1] is > 50 nM.

Take `C[C@@H](NS(=O)(=O)c1cccc(Cl)c1)[C@H]1CC[C@@H](c2ccnc3ccc(F)cc32)CC1`: in data set [1], the IC50 is < 50 nM.

As for `O/N=C(/CCC1CCCCC1)Nc1cccc(Cl)c1`, the half-maximal inhibitory concentration (IC50) in data set [1] was < 1 nM.

With `Cn1cc(-c2ccc(NC(=O)N3CCC(C(=O)/C(=N/O)Nc4ccc(F)c(Br)c4)CC3)cc2)cn1`, in data set [1], the 50% inhibitory concentration (IC50) was found to be 4 nM.

In the case of `O=S(=O)(NCCCOc1ccccc1-c1c[nH]cn1)C(F)(F)F`, the bioavailability in data set [6] stood at 96%.

In the data set on Ehrlich, `NC(=O)c1n[nH]nc1-c1ccc(F)c(F)c1` came in with a TGI of 96%.

On to `O[C@@H](C[C@H]1c2ccccc2-c2cncn21)c1cc2ccoc2cc1F`, for which, in data set [1], the IC50 is < 200 nM.

Turning to `Clc1ccc(Nc2cn[nH]n2)cc1`, in the data set filed under Homo sapiens, the Ratio IC50 was > 500.

For `C[C@@H](NC(=O)c1ccc(Cl)cc1)[C@H]1CC[C@@H](c2ccnc3ccc(F)cc32)CC1`, the IC50 in [1] is < 50 nM.

`Cn1cc(-c2cc(F)c(NC(=O)NCC3c4ccccc4-c4cncn43)cc2F)cn1` (configuration not stated): in [1], the IC50 came to 16 nM.

For the compound `Nc1nonc1/C(=N/O)N1Cc2ccccc2C1`, the IC50 in data set [1] amounted to 1.57 nM.

Regarding `CC(C(=O)Nc1ccc(Cl)cc1)C1CCC(c2ccnc(C(F)(F)F)c2)CC1` (configuration not stated), the half-maximal inhibitory concentration (IC50) in data set [1] is < 50 nM.

Consider `O=C(Nc1ccc(Cl)cc1)N[C@H]1CC[C@H](c2ccnc3ccc(F)cc32)CC1`, for which, in data set [1], the IC50 was < 50 nM.

For `CC(C(=O)Nc1ccc(Cl)cc1)[C@H]1CC[C@H](Oc2ccnc(C(F)(F)F)c2)CC1` (some centres not stated), the IC50 in [1] was > 250 nM.

Turning to `COC1CN(CCNc2nc3c(F)c(F)cc(/C(=N/O)Nc4cccc(Br)c4)c3[nH]2)C1`, half-maximal inhibition in data set [1] (IC50) required 111 nM.

With `CC(C)Oc1ccc(S(=O)(=O)NC2CCCc3cnccc32)cc1` (configuration not stated), in data set [1], the IC50 was < 50 nM.

Turning to `O=S(=O)(Nc1cccc2cnccc12)c1ccc2c(c1)OCCO2`, the IC50 in [1] is > 50 nM.
